Here are results for 4 compounds from patent US8575176B2, “Heteroaromatic pyrazinoylguanidine sodium channel blockers” (Parion Sciences, Inc., priority 2008, dated 2013).

Counter-ions that a name gives are not always drawn.

For data set [1], the target named is T1, epithelial sodium channels (ENaC) (Homo sapiens, UniProt P37088+P51168+P51170).
T1 construct: endogenous in cells; host or cells: primary human airway epithelial cells cultured at air-liquid interface
T1 sequence (P37088 1-669): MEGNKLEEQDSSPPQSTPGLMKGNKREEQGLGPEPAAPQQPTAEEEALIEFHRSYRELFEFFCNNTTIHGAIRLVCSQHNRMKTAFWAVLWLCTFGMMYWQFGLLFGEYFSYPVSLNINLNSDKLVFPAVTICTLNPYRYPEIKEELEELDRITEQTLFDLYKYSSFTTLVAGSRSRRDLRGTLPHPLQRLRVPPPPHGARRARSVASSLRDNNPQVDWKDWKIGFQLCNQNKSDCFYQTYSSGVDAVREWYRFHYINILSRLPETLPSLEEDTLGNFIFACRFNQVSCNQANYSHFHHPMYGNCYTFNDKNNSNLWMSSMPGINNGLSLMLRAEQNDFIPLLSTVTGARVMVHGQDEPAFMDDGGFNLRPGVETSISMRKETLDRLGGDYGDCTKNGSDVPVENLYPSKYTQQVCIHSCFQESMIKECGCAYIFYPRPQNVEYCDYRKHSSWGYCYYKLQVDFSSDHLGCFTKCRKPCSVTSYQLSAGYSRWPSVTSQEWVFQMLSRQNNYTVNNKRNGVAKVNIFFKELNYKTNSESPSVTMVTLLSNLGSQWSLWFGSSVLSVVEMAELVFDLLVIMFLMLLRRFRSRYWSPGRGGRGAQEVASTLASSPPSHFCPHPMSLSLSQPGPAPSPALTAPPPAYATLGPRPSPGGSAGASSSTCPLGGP
T1 sequence (P51168 1-640): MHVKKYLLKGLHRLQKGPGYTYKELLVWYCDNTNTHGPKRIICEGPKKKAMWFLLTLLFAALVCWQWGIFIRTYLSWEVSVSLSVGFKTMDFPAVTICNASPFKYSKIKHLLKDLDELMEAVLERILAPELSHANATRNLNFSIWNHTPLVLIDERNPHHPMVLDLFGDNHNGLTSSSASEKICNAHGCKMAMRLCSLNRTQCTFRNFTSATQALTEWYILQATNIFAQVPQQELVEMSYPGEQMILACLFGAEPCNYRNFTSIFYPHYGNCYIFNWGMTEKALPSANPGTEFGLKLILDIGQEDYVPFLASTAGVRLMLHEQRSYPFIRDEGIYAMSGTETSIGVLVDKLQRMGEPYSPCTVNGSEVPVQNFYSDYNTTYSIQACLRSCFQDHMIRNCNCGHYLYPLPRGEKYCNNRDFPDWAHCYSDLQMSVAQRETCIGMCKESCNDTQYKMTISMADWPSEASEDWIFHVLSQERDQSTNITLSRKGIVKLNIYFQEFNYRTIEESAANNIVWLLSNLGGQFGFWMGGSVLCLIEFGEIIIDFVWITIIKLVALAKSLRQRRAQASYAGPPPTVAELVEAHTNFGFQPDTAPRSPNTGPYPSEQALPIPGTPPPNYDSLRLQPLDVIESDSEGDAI
T1 sequence (P51170 1-649): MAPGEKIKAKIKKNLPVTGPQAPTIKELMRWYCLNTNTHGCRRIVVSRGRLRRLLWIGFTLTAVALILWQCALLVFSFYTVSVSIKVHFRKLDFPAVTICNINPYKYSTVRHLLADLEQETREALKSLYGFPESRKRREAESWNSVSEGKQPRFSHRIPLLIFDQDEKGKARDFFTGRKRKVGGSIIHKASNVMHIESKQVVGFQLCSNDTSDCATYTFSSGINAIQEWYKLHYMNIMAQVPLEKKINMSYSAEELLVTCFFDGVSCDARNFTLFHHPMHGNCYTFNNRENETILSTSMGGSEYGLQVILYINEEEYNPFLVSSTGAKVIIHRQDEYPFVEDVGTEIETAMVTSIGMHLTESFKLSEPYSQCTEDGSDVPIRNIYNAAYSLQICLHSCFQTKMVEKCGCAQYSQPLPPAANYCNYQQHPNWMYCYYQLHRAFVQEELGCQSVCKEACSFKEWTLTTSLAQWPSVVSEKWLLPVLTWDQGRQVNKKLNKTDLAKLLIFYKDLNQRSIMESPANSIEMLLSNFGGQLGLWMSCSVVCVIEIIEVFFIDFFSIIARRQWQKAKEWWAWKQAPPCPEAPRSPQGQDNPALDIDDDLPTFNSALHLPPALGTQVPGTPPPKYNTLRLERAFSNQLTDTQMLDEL
As to the kind of experiment: In vitro sodium channel blocking activity (short circuit current, Ussing chambers), human airway cells. The class given is cell-based. The following applies: freshly excised cell from human airways. As for the experimental part: In Vitro Measure of Sodium Channel Blocking Activity and Reversibility
(§1) One assay used to assess mechanism of action and/or potency of the compounds of the present invention involves the determination of lumenal drug inhibition of airway epithelial sodium currents measured under short circuit current (ISC) using airway epithelial monolayers mounted in Ussing chambers. Cells obtained from freshly excised human, dog, sheep or rodent airways are seeded onto porous 0.4 micron Snapwell™ Inserts (CoStar), cultured at air-liquid interface (ALI) conditions in hormonally defined media, and assayed for sodium transport activity (ISC) while bathed in Krebs Bicarbonate Ringer (KBR) in Using chambers. All test drug additions are to the lumenal bath with half-log dose addition protocols (from 1×10^−11 M to 3×10^−5 M), and the cumulative change in ISC (inhibition) recorded. All drugs are prepared in dimethyl sulfoxide as stock solutions at a concentration of 1×10^−2 M and stored at −20° C. […] After the maximal concentration ([…]) is administered, the lumenal bath is exchanged three times with fresh drug-free KBR solution, and the resultant ISC measured after each wash for approximately 5 minutes in duration. Reversibility is defined as the percent return to the baseline value for sodium current after the third wash. All data from the voltage clamps are collected via a computer interface and analyzed off-line.
(§2) Dose-effect relationships for all compounds are considered and analyzed by the Prism 3.0 program.

The target in data set [2] is T2, epithelial sodium channels (ENaC) (Canis lupus familiaris, UniProt A0A8I3MKE6+A0A8I3Q679+Q95165).
T2 sequence (A0A8I3Q679 1-649): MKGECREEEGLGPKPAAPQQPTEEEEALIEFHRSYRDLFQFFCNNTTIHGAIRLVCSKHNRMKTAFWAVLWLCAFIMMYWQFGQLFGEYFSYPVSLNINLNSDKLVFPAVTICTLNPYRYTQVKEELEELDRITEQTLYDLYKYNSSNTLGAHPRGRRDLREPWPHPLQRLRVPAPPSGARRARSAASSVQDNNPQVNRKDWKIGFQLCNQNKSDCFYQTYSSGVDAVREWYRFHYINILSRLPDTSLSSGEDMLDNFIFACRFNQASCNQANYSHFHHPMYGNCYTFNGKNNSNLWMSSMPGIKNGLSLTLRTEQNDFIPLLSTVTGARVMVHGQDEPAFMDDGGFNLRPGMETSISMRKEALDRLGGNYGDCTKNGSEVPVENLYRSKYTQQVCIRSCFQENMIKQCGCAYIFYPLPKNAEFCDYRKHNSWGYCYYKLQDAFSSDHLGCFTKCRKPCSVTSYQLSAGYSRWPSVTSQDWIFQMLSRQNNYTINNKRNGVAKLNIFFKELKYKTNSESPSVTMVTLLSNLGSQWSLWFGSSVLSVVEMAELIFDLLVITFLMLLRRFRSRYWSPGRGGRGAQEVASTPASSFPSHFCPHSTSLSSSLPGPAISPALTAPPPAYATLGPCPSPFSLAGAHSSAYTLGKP
T2 sequence (Q95165 1-641): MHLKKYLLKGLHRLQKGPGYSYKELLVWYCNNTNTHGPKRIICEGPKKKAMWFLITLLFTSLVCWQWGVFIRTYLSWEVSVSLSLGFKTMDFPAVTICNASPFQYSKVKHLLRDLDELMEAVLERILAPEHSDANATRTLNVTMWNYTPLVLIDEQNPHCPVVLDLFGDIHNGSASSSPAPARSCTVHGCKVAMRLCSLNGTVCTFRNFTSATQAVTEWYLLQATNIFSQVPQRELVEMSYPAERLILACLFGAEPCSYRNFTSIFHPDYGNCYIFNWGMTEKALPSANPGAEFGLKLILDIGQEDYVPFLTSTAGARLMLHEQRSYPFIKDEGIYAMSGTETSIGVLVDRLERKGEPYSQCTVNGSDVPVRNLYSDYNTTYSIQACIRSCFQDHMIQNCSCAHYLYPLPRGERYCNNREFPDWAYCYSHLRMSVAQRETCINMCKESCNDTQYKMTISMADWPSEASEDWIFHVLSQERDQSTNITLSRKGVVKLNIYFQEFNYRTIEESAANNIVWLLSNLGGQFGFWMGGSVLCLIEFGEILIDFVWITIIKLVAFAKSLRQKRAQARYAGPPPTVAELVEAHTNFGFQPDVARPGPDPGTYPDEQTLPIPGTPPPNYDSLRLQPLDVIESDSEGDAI
T2 sequence (A0A8I3MKE6 1-646): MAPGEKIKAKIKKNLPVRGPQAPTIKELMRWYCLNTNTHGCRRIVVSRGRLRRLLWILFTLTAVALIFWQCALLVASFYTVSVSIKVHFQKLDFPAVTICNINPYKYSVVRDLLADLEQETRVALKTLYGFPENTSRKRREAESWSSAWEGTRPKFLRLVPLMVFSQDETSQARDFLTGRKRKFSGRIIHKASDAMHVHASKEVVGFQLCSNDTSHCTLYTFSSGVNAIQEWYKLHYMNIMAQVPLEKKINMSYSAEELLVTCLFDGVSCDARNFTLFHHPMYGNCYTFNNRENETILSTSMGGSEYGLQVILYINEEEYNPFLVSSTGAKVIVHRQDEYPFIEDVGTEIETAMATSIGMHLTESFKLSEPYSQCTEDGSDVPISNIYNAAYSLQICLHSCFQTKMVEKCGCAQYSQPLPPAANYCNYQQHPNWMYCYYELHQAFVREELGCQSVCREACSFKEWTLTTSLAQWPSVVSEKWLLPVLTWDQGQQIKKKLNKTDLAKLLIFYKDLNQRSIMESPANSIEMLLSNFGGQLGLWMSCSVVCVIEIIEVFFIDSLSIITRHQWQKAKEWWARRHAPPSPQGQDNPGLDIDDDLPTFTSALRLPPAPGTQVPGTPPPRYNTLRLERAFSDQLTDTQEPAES
As to the kind of experiment: In vitro sodium channel blocking activity (short circuit current, Ussing chambers), dog airway cells. The following applies: freshly excised cell from dog airways. The data set is classed as cell-based. As for the experimental part:
as §1, with “Reversibility is defined as the percent return to the baseline value for sodium current after the third wash.” left out
as §2

The melting point is the temperature of the solid-liquid transition. Regarding `C[C@H](O)C(=O)O.N=C(NCCCCc1ccc(OCC(O)CO)c2ccccc12)NC(=O)c1cc(Cl)c(N)cc1N` [Compound 26, 2,4-Diamino-5-chloro-N—(N-{4-[4-(2,3-dihydroxypropoxy)naphthalen-1-yl]butyl}carbamimidoyl)benzamide L-(+)-Lactic Acid Salt], the melting point lay in the range of 115 to 118 °C. Further, in data set [1], the “Potency of Sodium Channel Blockade Relative to Amiloride” value is listed as 30.

As for `N=C(NCCCCc1ccc2cc(OCC(O)CO)ccc2c1)NC(=O)c1nc(Cl)c(N)nc1N` (centres unmarked) [Compound 34, 3,5-Diamino-6-chloro-N—(N-{4-[6-(2,3-dihydropropoxy)naphthalen-2-yl]butyl}carbamimidoyl)pyrazine-2-carboxamide Methanesulfonic Acid Salt], the “Potency of Sodium Channel Blockade Relative to Amiloride” value in data set [1] is given as 63.

On to `CS(=O)(=O)O.N=C(NCCCCc1ccc(OCCCN)c2ccccc12)NC(=O)c1nc(Cl)c(N)nc1N` [Compound 72, 3,5-Diamino-N—(N-{4-[4-(3-aminopropoxy)naphthalen-1-yl]butyl}carbamimidoyl)-6-chloropyrazine-2-carboxamide Methanesulfonic Acid Salt], for which the “Potency of Sodium Channel Blockade Relative to Amiloride” value in data set [1] amounted to 164.

One may read the IC50 as the concentration at which inhibition is half-maximal. The low end stands for higher potency, the high end for lower potency. In data set [2], `CC1OC[C@@H](O)[C@H]([C@H](O)[C@@H](O)CNCCCOc2ccc3cc(CCCCN)ccc3c2)O1` (some centres unmarked) [Compound 105] returned an IC50 of 23.5 nM.
